Key:
[1] = test system: IL10 secretion in OCI-LY10 cells; experiment: Human IL10 secretion assay, Assay 2 (MSD); type: cell-based; conditions: Homo sapiens, 24 h incubation, Meso Scale Discovery, read-out: IL-10 Secretion IC50 [nM] Assay 2
Procedure: IL10 is one of the cytokines that are regulated via activation of NF-kB signaling. For example, in ABC-DLBCL cell lines, the activated NF-kB signaling leads to increased IL10 secretion. Inhibition of NF-kB signaling has been shown leading to decreased IL10 secretion.
Assay 2: OCI-LY10 cells were seeded in IMEM supplemented with 20% fetal bovine serum at 4.8×10^5 cells per 160 μL per well in 96-well V-bottom cell culture plates (corning, 3894), treated with 120 nL of 3-fold serial compound dilutions, starting at 4 mM. The final vehicle concentration was 0.075% DMSO in all wells. After a 24 h incubation, human IL-10 precoated plates (Meso Scale Discovery) were washed 3 times with PBST, and 50 μL culture medium was aspirated into the MSD plate and incubated at 4° C. overnight. The supernatant was then discarded, and the wells were washed 3 times with PB ST. SULFO-TAG Anti-human IL-10 Antibody (50×) was diluted 50-fold according to the Meso Scale Protocol, then 25 μL of SULFO-TAG Anti-human IL-10 Antibody (1×) was added. After 2 h of incubation at RT, the supernatant was discarded, and the well was washed 3 times with PBST. 2×read buffer was added and the signal was read on an MSD Sector S600. The effect of a particular compound on IL10 secretion is shown relative to the effect of DMSO; set as 100%. IC50 values (nM) were determined using 4-parametric curve-fitting.

[2] = molecular target: T1, full-length MALT1 protein His-MALT1(1-824) (Homo sapiens, UniProt Q9UDY8); experiment: MALT1 protease assay, Assay 2 (1 nM MALT1, Ac-LRSR-AMC substrate); type: biochemical; conditions: 1 nM MALT1, 50 μM Ac-LRSR-AMC, 2 h pre-incubation, 8 hr incubation at RT
T1 construct: full-length MALT1 protein His-MALT1(1-824); His (N); made in house; host or cells: baculovirus-infected insect cells
T1 sequence (Q9UDY8 1-824): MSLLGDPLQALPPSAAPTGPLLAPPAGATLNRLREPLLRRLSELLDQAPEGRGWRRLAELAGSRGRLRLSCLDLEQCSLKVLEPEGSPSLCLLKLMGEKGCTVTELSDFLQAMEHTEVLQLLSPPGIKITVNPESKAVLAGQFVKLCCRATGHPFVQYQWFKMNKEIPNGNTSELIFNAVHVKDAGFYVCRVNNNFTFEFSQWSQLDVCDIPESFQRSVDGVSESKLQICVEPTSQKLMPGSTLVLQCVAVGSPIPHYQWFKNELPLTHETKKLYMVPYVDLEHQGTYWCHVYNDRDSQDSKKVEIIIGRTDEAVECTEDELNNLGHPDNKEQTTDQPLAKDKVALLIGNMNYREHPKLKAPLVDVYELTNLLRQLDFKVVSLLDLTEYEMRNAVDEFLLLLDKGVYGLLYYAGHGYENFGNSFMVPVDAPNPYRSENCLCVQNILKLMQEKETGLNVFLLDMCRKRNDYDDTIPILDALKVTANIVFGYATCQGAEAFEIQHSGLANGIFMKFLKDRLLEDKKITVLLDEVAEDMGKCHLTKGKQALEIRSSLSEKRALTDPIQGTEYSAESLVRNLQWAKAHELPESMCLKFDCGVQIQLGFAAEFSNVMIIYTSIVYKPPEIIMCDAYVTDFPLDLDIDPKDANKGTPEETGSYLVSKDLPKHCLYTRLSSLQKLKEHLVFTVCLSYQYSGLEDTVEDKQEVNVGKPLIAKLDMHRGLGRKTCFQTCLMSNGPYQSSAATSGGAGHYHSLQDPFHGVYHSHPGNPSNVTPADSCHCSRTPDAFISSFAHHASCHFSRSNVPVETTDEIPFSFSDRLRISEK
Procedure, shortened: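 Full-length His-MALT1(1-824) from baculovirus-infected insect cells, pre-incubated with compound 2 h at RT (0.1% DMSO). Then 50 μM Ac-LRSR-AMC added. Buffer was Tris pH 7.5 with 600 mM sodium citrate, DTT, EDTA and BSA. Fluorescence (ex 355/em 460 nm) was read after 8 h at RT and normalized to high/low controls. IC50 from non-linear regression.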

Q: With `CC1(C)CC(C(=O)Nc2cnc(-n3nccn3)c(Cl)c2)c2cnn3cc(Cl)nc3c21` (single isomer, unassigned) [Example 195, 2-chloro-N-(5-chloro-6-(2H-1,2,3-triazol-2-yl)pyridin-3-yl)-9,9-dimethyl-8,9-dihydro-7H-cyclopenta[d]imidazo[1,2-b]pyridazine-7-carboxamide] as the molecule, how does the IC50 [1] read?
A: 10 to 100 nM

Q: What about the IC50 [2] of the same molecule?
A: < 10 nM

Q: How did the IC50 [1] turn out when `C[C@@]1(C(F)(F)F)C[C@H](C(=O)Nc2cnc(-n3nccn3)c(C(F)(F)F)c2)c2cnc3cc(Cl)nn3c21` (single isomer, unassigned) [Example 54, N-(6-(2H-1,2,3-triazol-2-yl)-5˜(trifluoromethyl)pyridin-3-yl)-2-chloro-8-methyl-8-(trifluoromethyl)-7,8-dihydro-6H-cyclopenta[e]pyrazolo[1,5-a]pyrimidine-6-carboxamide] was run?
A: 100 to 1000 nM

Q: What about the IC50 [2] of the same molecule?
A: < 10 nM

Q: How did the IC50 [1] turn out when `CC1(C)CC(C(=O)Nc2cnc(OC(F)F)c(C#N)c2)c2cnc3cc(F)nn3c21` (single isomer, unassigned) [Example 84, N-(5-cyano-6-(difluoromethoxy)pyridin-3-yl)-2-fluoro-8,8-dimethyl-7,8-dihydro-6H-cyclopenta[e]pyrazolo[1,5-a]pyrimidine-6-carboxamide] was run?
A: 10 to 100 nM

Q: What about the IC50 [2] of the same molecule?
A: < 10 nM

Q: Which results are given for `Cc1cc2cc(F)c3c(n2n1)C(C)(C)CC3C(=O)Nc1cnc(-n2nccn2)c(Cl)c1` (single isomer, unassigned) [Example 157, N-(5-chloro-6-(2H-1,2,3-triazol-2-yl)pyridin-3-yl)-5-fluoro-2,8,8-trimethyl-7,8-dihydro-6H-cyclopenta[e]pyrazolo[1,5-a]pyridine-6-carboxamide]?
A: IC50 [1]: ≥ 1000 nM; IC50 [2]: 10 to 100 nM

Q: For `CC1(C)CC(C(=O)Nc2cnc(OC3CC3)c(C#N)c2)c2cnc3cc(F)nn3c21` (single isomer, unassigned) [Example 81, N-(5-cyano-6-cyclopropoxypyridin-3-yl)-2-fluoro-8,8-dimethyl-7,8-dihydro-6H-cyclopenta[e]pyrazolo[1,5-a]pyrimidine-6-carboxamide], which IC50 [1] is on record?
A: 100 to 1000 nM

Q: What about the IC50 [2] of the same molecule?
A: 10 to 100 nM

Q: What does the source list for `C[C@@H](O)c1cnn(-c2ncc(NC(=O)[C@H]3CC(C)(C)c4c3cnc3cc(Cl)nn43)cc2Cl)n1` (single isomer, unassigned) [Example 51, 2-chloro-N-(5-chloro-6-(4-(1-hydroxyethyl)-2H-1,2,3-triazol-2-yl)pyridin-3-yl)-8,8-dimethyl-7,8-dihydro-6H-cyclopenta[e]pyrazolo[1,5-a]pyrimidine-6-carboxamide]?
A: IC50 [1]: 100 to 1000 nM; IC50 [2]: < 10 nM

Q: `CC1(C)CC(C(=O)Nc2cnc(-n3nccn3)c(C#N)c2)c2cnc3cc(Cl)nn3c21` (single isomer, unassigned) [Example 107, 2-chloro-N-(5-cyano-6-(2H-1,2,3-triazol-2-yl)pyridin-3-yl)-8,8-dimethyl-7,8-dihydro-6H-cyclopenta[e]pyrazolo[1,5-a]pyrimidine-6-carboxamide] was tested. Which IC50 [1] did it give?
A: 10 to 100 nM

Q: What about the IC50 [2] of the same molecule?
A: < 10 nM

Q: What does the source list for `O=C(Nc1cnc(-n2nccn2)c(Cl)c1)C1CC2(CC2)c2c1cnc1cc(F)nn21` (single isomer, unassigned) [Example 95, N-(5-chloro-6-(2H-1,2,3-triazol-2-yl)pyridin-3-yl)-2-fluoro-6,7-dihydrospiro[cyclopenta[e]pyrazolo[1,5-a]pyrimidine-8,1′-cyclopropane]-6-carboxamide]?
A: IC50 [1]: 100 to 1000 nM; IC50 [2]: 10 to 100 nM

Q: What does the source list for `N#Cc1cc(NC(=O)C2CC3(CCC3)c3c2cnc2cc(F)nn32)cnc1OC(F)F` (single isomer, unassigned) [Example 103, N-(5-cyano-6-(difluoromethoxy)pyridin-3-yl)-2′-fluoro-6′,7′-dihydrospiro[cyclobutane-1,8′-cyclopenta[e]pyrazolo[1,5-a]pyrimidine]-6′-carboxamide]?
A: IC50 [1]: 100 to 1000 nM; IC50 [2]: < 10 nM

Q: With `Cn1nnnc1-c1ncc(NC(=O)C2CC(C)(C)c3c2cnc2cc(Cl)nn32)cc1Cl` (single isomer, unassigned) [Example 145, 2-chloro-N-(5-chloro-6-(1-methyl-1H-tetrazol-5-yl)pyridin-3-yl)-8,8-dimethyl-7,8-dihydro-6H-cyclopenta[e]pyrazolo[1,5-a]pyrimidine-6-carboxamide] as the molecule, how does the IC50 [1] read?
A: 100 to 1000 nM

Q: What about the IC50 [2] of the same molecule?
A: < 10 nM

Q: `CC1(C)CC(C(=O)Nc2cnc(OC(F)F)c(Cl)c2)c2cnc3cc(Cl)nn3c21` (single isomer, unassigned) [Example 68, 2-chloro-N-(5-chloro-6-(difluoromethoxy)pyridin-3-yl)-8,8-dimethyl-7,8-dihydro-6H-cyclopenta[e]pyrazolo[1,5-a]pyrimidine-6-carboxamide] was tested. Which IC50 [1] did it give?
A: 100 to 1000 nM

Q: And the IC50 [2]?
A: < 10 nM

Q: How did the IC50 [1] turn out when `CC1(C)CC(C(=O)Nc2cnc(-n3nccn3)c(C#N)c2)c2cnc3cc(F)nn3c21` (single isomer, unassigned) [Example 89, N-(5-cyano-6-(2H-1,2,3-triazol-2-yl)pyridin-3-yl)-2-fluoro-8,8-dimethyl-7,8-dihydro-6H-cyclopenta[e]pyrazolo[1,5-a]pyrimidine-6-carboxamide] was run?
A: 100 to 1000 nM

Q: What about the IC50 [2] of the same molecule?
A: < 10 nM

Q: With `C[C@H](O)c1cnn(-c2ncc(NC(=O)[C@H]3CC4(CCC4)c4c3cnc3cc(Cl)nn43)cc2Cl)n1` (single isomer, unassigned) [Example 158] as the molecule, how does the IC50 [1] read?
A: 100 to 1000 nM

Q: And the IC50 [2]?
A: 10 to 100 nM

Q: For `CC1(C)CC(C(=O)Nc2cnc(-n3nccn3)c(Cl)c2)c2cnc3c(F)cnn3c21` (single isomer, unassigned) [Example 101, N-(5-chloro-6-(2H-1,2,3-triazol-2-yl)pyridin-3-yl)-3-fluoro-8,8-dimethyl-7,8-dihydro-6H-cyclopenta[e]pyrazolo[1,5-a]pyrimidine-6-carboxamide], which IC50 [1] is on record?
A: 100 to 1000 nM

Q: What about the IC50 [2] of the same molecule?
A: 10 to 100 nM

Q: Which IC50 [1] does the source give for `O=C(Nc1cnc(-n2nccn2)c(C(F)(F)F)c1)C1CC2(CC2)c2c1cnc1cc(Cl)nn21` (single isomer, unassigned) [Example 149, N-(6-(2H-1,2,3-triazol-2-yl)-5-(trifluoromethyl)pyridin-3-yl)-2-chloro-6,7-dihydrospiro[cyclopenta[e]pyrazolo[1,5-a]pyrimidine-8,1′-cyclopropane]-6-carboxamide] here?
A: 100 to 1000 nM

Q: What about the IC50 [2] of the same molecule?
A: 10 to 100 nM

Q: What does the source list for `CC1(C)CC(C(=O)Nc2cnc(-n3nccn3)c(Cl)c2)c2cnc3c(F)c(F)nn3c21` (single isomer, unassigned) [Example 122, N-(5-chloro-6-(2H-1,2,3-triazol-2-yl)pyridin-3-yl)-2,3-difluoro-8,8-dimethyl-7,8-dihydro-6H-cyclopenta[e]pyrazolo[1,5-a]pyrimidine-6-carboxamide]?
A: IC50 [1]: 100 to 1000 nM; IC50 [2]: < 10 nM

Q: For `CC1(C)CC(C(=O)Nc2cnc(OC(F)F)c(C#N)c2)c2cnc3c(F)c(F)nn3c21` (single isomer, unassigned) [Example 91, N-(5-cyano-6-(difluoromethoxy)pyridin-3-yl)-2,3-difluoro-8,8-dimethyl-7,8-dihydro-6H-cyclopenta[e]pyrazolo[1,5-a]pyrimidine-6-carboxamide], which IC50 [1] is on record?
A: 100 to 1000 nM

Q: And the IC50 [2]?
A: 10 to 100 nM

Q: How did the IC50 [1] turn out when `CC1(C)C[C@H](C(=O)Nc2cnc(-n3nccn3)c(C(F)(F)F)c2)c2cnc3cc(Cl)nn3c21` (single isomer, unassigned) [Example 44, N-(6-(2H-1,2,3-triazol-2-yl)-5˜(trifluoromethyl)pyridin-3-yl)-2-chloro-8,8-dimethyl-7,8-dihydro-6H-cyclopenta[e]pyrazolo[1,5-a]pyrimidine-6-carboxamide] was run?
A: 100 to 1000 nM

Q: What about the IC50 [2] of the same molecule?
A: < 10 nM

— patent US12667572B2, “Tricyclic compounds useful in the treatment of cancer, autoimmune and inflammatory disorders” (SCHRÖDINGER, INC., priority 2021, dated 2026)
